Results published in PubChem BioAssay AID330 (DTP/NCI, 2004).
“And” between values parts separate entries of the source, which are not always exact repeats. Identical values can stand only once. Toxic doses and inconclusive results are not listed. How the source made its calls: active means survival T/C of 150% or more; inactive means T/C below 125% in these data.

Tested on: P388 leukemia ip, CD2F1 mice, survival T/C
Test: NCI In Vivo Anticancer Drug Screen. Data for tumor model P388 Leukemia (intraperitoneal) in CD2F1 (CDF1) mice
Conditions: endpoint: median survival time, higher = longer survival
Procedure, shortened: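 Mice carrying the transplanted tumor received test compound or vehicle. Survival was recorded in each group, and the value is the treated-group measurement divided by that of the vehicle-treated control group.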

[1] = dose: 50.0 mg/kg/injection, schedule: Q01DX005 (ip), vehicle: saline with Tween-80
[2] = dose: 100.0 mg/kg/injection, schedule: Q01DX005 (ip), vehicle: saline with Tween-80
[3] = dose: 50.0 mg/kg/injection, schedule: Q01DX009 (ip), vehicle: saline
[4] = dose: 100.0 mg/kg/injection, schedule: Q01DX009 (ip), vehicle: saline
[5] = dose: 200.0 mg/kg/injection, schedule: Q01DX009 (ip), vehicle: saline
[6] = dose: 60.0 mg/kg/injection, schedule: Q01DX005 (ip), vehicle: saline with Tween-80
[7] = dose: 120.0 mg/kg/injection, schedule: Q01DX005 (ip), vehicle: saline with Tween-80
[8] = dose: 240.0 mg/kg/injection, schedule: Q01DX005 (ip), vehicle: saline with Tween-80
[9] = dose: 50.0 mg/kg/injection, schedule: Q01DX005 (ip), vehicle: Klucel (hydroxypropylcellulose) (HPC)
[10] = dose: 100.0 mg/kg/injection, schedule: Q01DX005 (ip), vehicle: Klucel (hydroxypropylcellulose) (HPC)
[11] = dose: 200.0 mg/kg/injection, schedule: Q01DX005 (ip), vehicle: Klucel (hydroxypropylcellulose) (HPC)
[12] = dose: 50.0 mg/kg/injection, schedule: Q01DX009 (ip), vehicle: Klucel (hydroxypropylcellulose) (HPC)
[13] = dose: 200.0 mg/kg/injection, schedule: Q01DX009 (ip), vehicle: Klucel (hydroxypropylcellulose) (HPC)
[14] = dose: 100.0 mg/kg/injection, schedule: Q01DX001 (ip), vehicle: saline with Tween-80
[15] = dose: 200.0 mg/kg/injection, schedule: Q01DX001 (ip), vehicle: saline with Tween-80

Measured: T/C

CCCCOC(=O)NC(=O)c1cc2cc(Cl)cc(Cl)c2oc1=O
inactive: [1] 90 % of control | [2] 91 % of control

CC(C)(CO)C(O)C(=O)NCCCO (stereo not given)
inactive: [3] 103 % of control | [4] 98 % of control | [5] 100 % of control

COc1ccc(-n2[nH]c3c(cnc4ccccc43)c2=O)cc1
inactive: dose: 15.0 mg/kg/injection, schedule: Q01DX005 (ip), vehicle: saline with Tween-80 87 % of control | dose: 30.0 mg/kg/injection, schedule: Q01DX005 (ip), vehicle: saline with Tween-80 87 % of control | [6] 90 % of control | [7] 100 % of control | [8] 94 % of control

O=C(OCc1ccccc1)N(CCF)c1cn(Cc2ccccc2)c(=O)n(Cc2ccccc2)c1=O
inactive: [9] 93 % of control | [10] 96 % of control | [11] 87 % of control

O=C(S[Si](c1ccccc1)(c1ccccc1)c1ccccc1)c1ccccc1
inactive: [3] 102 % of control | [4] 110 % of control

O=C(CCCl)Nc1cc2ccccc2oc1=O
inactive: [6] 91 % of control | [7] 92 % of control | [8] 89 % of control

NC(=S)N/N=C/c1ccncn1
inactive: dose: 6.25 mg/kg/injection, schedule: Q01DX009 (ip), vehicle: Klucel (hydroxypropylcellulose) (HPC) 93 % of control | dose: 6.25 mg/kg/injection, schedule: Q04DX003 (ip), vehicle: Klucel (hydroxypropylcellulose) (HPC) 111 % of control | dose: 12.5 mg/kg/injection, schedule: Q01DX009 (ip), vehicle: Klucel (hydroxypropylcellulose) (HPC) 92 % of control | dose: 12.5 mg/kg/injection, schedule: Q04DX003 (ip), vehicle: Klucel (hydroxypropylcellulose) (HPC) 101 % of control | dose: 12.5 mg/kg/injection, schedule: Q04DX003 (ip), vehicle: saline with Tween-80 123 % of control | dose: 25.0 mg/kg/injection, schedule: Q01DX009 (ip), vehicle: Klucel (hydroxypropylcellulose) (HPC) 100 % of control | dose: 25.0 mg/kg/injection, schedule: Q04DX003 (ip), vehicle: Klucel (hydroxypropylcellulose) (HPC) 111 % of control | dose: 50.0 mg/kg/injection, schedule: Q04DX003 (ip), vehicle: Klucel (hydroxypropylcellulose) (HPC) 112 % of control

C[N+]1(N)CCOCC1
inactive: dose: 12.5 mg/kg/injection, schedule: Q01DX009 (ip), vehicle: saline 97 % of control | dose: 25.0 mg/kg/injection, schedule: Q01DX009 (ip), vehicle: saline 100 % of control | [3] 92 % of control

Nc1cccc(C(=O)O)c1O
inactive: [3] 100 % of control | [4] 106 % of control | [5] 104 % of control

O=C(CCl)NC(Cc1cccs1)C(=O)O (stereo not given)
inactive: [3] 98 % of control | [4] 93 % of control | [5] 96 % of control

COC(=O)c1cc(C#N)n2ccc3ccccc3c12
inactive: [12] 105 % of control | dose: 100.0 mg/kg/injection, schedule: Q01DX009 (ip), vehicle: Klucel (hydroxypropylcellulose) (HPC) 104 % of control | [13] 94 % of control

COc1ccc(C)cc1NC(=O)ON=C1CCCCC1
inactive: [6] 95 % of control | [7] 94 % of control | [8] 100 % of control

OCC1OC(n2cnc3c2NC=NC[C@H]3O)CC1O (stereo not given in full)
inactive: dose: 0.05 mg/kg/injection, schedule: Q03HX024 (ip), vehicle: clinical formulation 100 % of control | dose: 0.05 mg/kg/injection, schedule: Q03HX024 (ip), vehicle: water 99 % of control | dose: 0.1 mg/kg/injection, schedule: Q03HX024 (ip), vehicle: clinical formulation 100 % of control | dose: 0.1 mg/kg/injection, schedule: Q03HX024 (ip), vehicle: water 100 % of control | dose: 0.12 mg/kg/injection, schedule: Q01DX009 (ip), vehicle: water 111 % of control | dose: 0.13 mg/kg/injection, schedule: Q01DX009 (ip), vehicle: saline 112 % of control | dose: 0.2 mg/kg/injection, schedule: Q03HX024 (ip), vehicle: clinical formulation 100 % of control | dose: 0.2 mg/kg/injection, schedule: Q03HX024 (ip), vehicle: water 100 % of control | dose: 0.25 mg/kg/injection, schedule: Q01DX005 (ip), vehicle: water 101 % of control and 102 % of control | dose: 0.25 mg/kg/injection, schedule: Q01DX009 (ip), vehicle: saline 100 % of control and 119 % of control | dose: 0.25 mg/kg/injection, schedule: Q01DX009 (ip), vehicle: water 103 % of control and 111 % of control | dose: 0.25 mg/kg/injection, schedule: Q04DX002 (ip), vehicle: saline 99 % of control and 112 % of control | dose: 0.25 mg/kg/injection, schedule: Q04DX003 (ip), vehicle: saline 101 % of control | dose: 0.38 mg/kg/injection, schedule: Q01DX009 (ip), vehicle: saline 107 % of control | dose: 0.5 mg/kg/injection, schedule: Q01DX005 (ip), vehicle: water 99 % of control and 101 % of control | dose: 0.5 mg/kg/injection, schedule: Q01DX009 (ip), vehicle: saline 109 % of control and 110 % of control | dose: 0.5 mg/kg/injection, schedule: Q01DX009 (ip), vehicle: water 99 % of control and 118 % of control | dose: 0.5 mg/kg/injection, schedule: Q04DX002 (ip), vehicle: saline 106 % of control and 109 % of control | dose: 0.5 mg/kg/injection, schedule: Q04DX003 (ip), vehicle: saline 101 % of control | dose: 0.66 mg/kg/injection, schedule: Q01DX009 (ip), vehicle: saline 92 % of control | dose: 0.75 mg/kg/injection, schedule: Q01DX009 (ip), vehicle: saline 104 % of control | dose: 1.0 mg/kg/injection, schedule: Q01DX005 (ip), vehicle: water 102 % of control | dose: 1.0 mg/kg/injection, schedule: Q01DX009 (ip), vehicle: saline 107 % of control and 94 % of control | dose: 1.0 mg/kg/injection, schedule: Q01DX009 (ip), vehicle: water 101 % of control | dose: 1.5 mg/kg/injection, schedule: Q01DX009 (ip), vehicle: saline 103 % of control | dose: 2.0 mg/kg/injection, schedule: Q01DX005 (ip), vehicle: water 102 % of control | dose: 2.0 mg/kg/injection, schedule: Q01DX009 (ip), vehicle: saline 102 % of control | dose: 2.0 mg/kg/injection, schedule: Q01DX009 (ip), vehicle: water 86 % of control | dose: 3.0 mg/kg/injection, schedule: Q01DX009 (ip), vehicle: saline 107 % of control | dose: 4.0 mg/kg/injection, schedule: Q01DX005 (ip), vehicle: water 104 % of control | dose: 4.0 mg/kg/injection, schedule: Q01DX009 (ip), vehicle: water 86 % of control

CCOC(=O)/C(=C(\C)N)n1[nH]c(=O)n(-c2ccccc2)c1=O
inactive: dose: 25.0 mg/kg/injection, schedule: Q01DX005 (ip), vehicle: Klucel (hydroxypropylcellulose) (HPC) 98 % of control | [9] 100 % of control and 103 % of control | [10] 101 % of control and 96 % of control | [11] 98 % of control and 103 % of control

CC(=O)Nc1ccc(OCCOC(=O)Nc2c(Cl)cccc2Cl)cc1
inactive: [12] 92 % of control | [13] 92 % of control

C=CCCCCCCCCCC(CCCCCC)C(=O)O (stereo not given)
inactive: dose: 50.0 mg/kg/injection, schedule: Q01DX001 (ip), vehicle: saline with Tween-80 91 % of control | [14] 100 % of control | [15] 95 % of control

c1ccc(-c2ncc[nH]2)cc1
inactive: [14] 98 % of control | [15] 97 % of control

O=C(O)c1c2c(nc3ccccc13)-c1ccccc1C2
inactive: [9] 102 % of control | [10] 93 % of control | [11] 89 % of control

CC(C)(C)OC(=O)NC(CCC(=O)O)(Cc1ccccc1)C(=O)NC(CCC(=O)OCc1ccccc1)C(=O)OCc1ccccc1 (stereo not given)
inactive: dose: 6.25 mg/kg/injection, schedule: Q01DX005 (ip), vehicle: saline with Tween-80 98 % of control | dose: 12.5 mg/kg/injection, schedule: Q01DX005 (ip), vehicle: saline with Tween-80 96 % of control | dose: 25.0 mg/kg/injection, schedule: Q01DX005 (ip), vehicle: saline with Tween-80 105 % of control

Cc1cccc(/C=N/Nc2cc(C)c3cccc(C)c3n2)n1
inactive: [1] 100 % of control | [2] 89 % of control | dose: 200.0 mg/kg/injection, schedule: Q01DX005 (ip), vehicle: saline with Tween-80 88 % of control

COC(=O)Nn1c(C)c(C(=O)Nc2ccc(OC)cc2)c(C(=O)OC)c1C
inactive: [6] 97 % of control | [7] 100 % of control | [8] 97 % of control
